Test [1] relates to model mice of colorectal cancer (AOM/DSS). The test can be described thus: Model mice of colorectal cancer (AOM/DSS), oral administration. It counts as in vivo, ICR mice. The following applies: for ratio of tumor area in the colon / number of tumors having a diameter of more than 2 mm / tumor area in the colon: versus placebo group; for ratio of tumor area in the colon: FIG. 2A; for number of tumors having a diameter of more than 2 mm: FIG. 2B; for colon length: shortening in placebo group versus control group, FIG. 1B; for tumor area in the colon: FIG. 1A. The procedure: Model mice of colorectal cancer were prepared using azoxymethane (AOM; manufactured by Wako Pure Chemical Industries, Ltd.) and dextran sulfate sodium (DSS, manufactured by MP Biomedicals). Specifically, 5-week-old male ICR mice (produced by CLEA Japan) were first acclimated and bred for 1 week. At 6 weeks of age, the mice were randomly divided in a control group and 5 colorectal cancer groups (placebo group, Present Compound #1[1] group, Present Compound #1[10] group, Present Compound #2[1] group, and Present Compound #2[10] group), and 10 (mg/kg body weight) of AOM was intraperitoneally administered to the colorectal cancer groups. Seven days later, the mice were allowed to freely drink 2.5% (w/v) DSS for 1 week, and then tap water for 14 days. This administration of DSS was performed for […] to prepare model mice of colorectal cancer. When the above AOM was intraperitoneally administered (that is, at 6 weeks of age), physiological saline solutions containing 1 (mg/kg body weight/day) and 10 (mg/kg body weight/day) of the Present Compound #1 were orally administered for 70 consecutive days thereafter to the Present Compound #1(1) group and the Present Compound #1(10) group, respectively, physiological saline solutions containing 1 (mg/kg body weight/day) and 10 (mg/kg body weight/day) of the Present Compound #2 were orally administered for 70 consecutive days thereafter to the Present Compound #2(1) group and the Present Compound #2(10) group, respectively, and a physiological saline solution was orally administered for 70 consecutive days thereafter to the placebo group. In addition, to the control group, a physiological saline solution was orally administered at 6 weeks of age for 70 consecutive days thereafter. All mice were sacrificed and the colons were harvested immediately after the end of the third cycle. The colons were photographed in full length and the colon length (see FIG. 1B), as well as the tumor area in the colon (see FIG. 1A), the ratio of tumor area in the colon (see FIG. 2A), and the number of tumors having a diameter of more than 2 mm (see FIG. 2B) were measured. Note that, for the tumors, the elevated lesions that were thought to contain cancer were visually observed in the colon (large intestine), and the area of these elevated lesions (that is, the tumors) and the total colon area were calculated by NIH Image J version 1.51 (US National Institutes of Health, MD, http://imagej.nih.gov/ij/index.html). The ratio of tumor area in the colon was calculated based on the formula “(elevated lesion area/total colon area)×100”.
Student's t-test was used for the comparison between two groups, and Dunnet's test or Tukey's test was used for the comparison between three groups. The survival rate (see FIG. 3) was evaluated by a log-rank test using the Kaplan-Meier survival curve. JMP version 14 (manufactured by SAS Institute) was used for statistical analysis. For all test results, p-values less than 0.05 were considered statistically significant.

For test [2], the system named is colorectal cancer cell line HCT116. The experiment in a line: Cell migration test. It counts as cell-based, human. The note with it: 50 μM, 48 hours, HCT116, 20% FBS as attractant; versus absence of compound; FIG. 4. The procedure: Cells of the human colorectal cancer cell line HCT116 (obtained from ATCC) were cultured and maintained in a DMEM (Dulbecco's Modified Eagle Medium) culture solution (manufactured by Sigma-Aldrich) containing 10% fetal bovine serum (FBS) (manufactured by Biowest) and 1% penicillin-streptomycin (manufactured by Thermo Fisher Science) under the conditions of 5% CO2/20% O2 and 37° C.
7.5×10^4 cells of the colorectal cancer cell line HCT116 were seeded in each well of the Corning Fluoroblok 24-Multiwell Insert Systems (pore size: 8.0 μm) (manufactured by Corning), and cultured for 48 hours in FBS-free DMEM culture solution or FBS-free DMEM culture solution containing 50 μM of the Present Compound #2. Note that a DMEM culture solution containing 20% FBS, which is an attractant, was added to the chamber at the bottom of the plate. The migrating cells that had passed through the membrane on the lower surface of the cell culture insert were stained using a Diff-Quik kit (manufactured by Sysmex), the membrane was air-dried, and then the number of cells was measured in three fields of view using a phase-contrast microscope.
Student's t-test was used for the comparison between two groups, and Dunnet's test or Tukey's test was used for the comparison between three groups. The survival rate (see FIG. 3) was evaluated by a log-rank test using the Kaplan-Meier survival curve. […]

The mark [3] stands for this setting: 1 mg/kg body weight/day orally for 70 consecutive days.
Setting [4] is: 10 mg/kg body weight/day orally for 70 consecutive days.

The source of these data is patent US12357612B2, “Prophylactic or therapeutic agent for cancer” (TOHOKU UNIVERSITY, priority 2019, dated 2025).

With `O=C(CC(C(=O)O)c1c[nH]c2ccccc12)c1ccc(F)cc1F` (centres unmarked) [Present Compound #1, 4-(2,4-difluorophenyl)-2-(1H-indole-3-yl)-4-oxo-butanoic acid], in test [1] (setting [3]), the “ratio of tumor area in the colon” value is reported as “smaller” and the “number of tumors having a diameter of more than 2 mm” value (shortened to “number”) was “smaller”. Also, in test [1] (setting [4]), the colon length result was “shortening was suppressed”, the “tumor area in the colon” value is recorded as “smaller”, the “ratio of tumor area in the colon” value is reported as “smaller” and the “number” value is listed as “smaller”.

Turning to `COc1cc(COc2ccc3[nH]cc(CC(=O)O)c3c2)cc(OC)c1` [Present Compound #2, 5-(3,5-dimethoxybenzyloxy)-3-indoleacetic acid], the cell migration level result in test [2] is “lower”. In addition, in test [1] (setting [3]), the colon length result was “shortening was suppressed” and the “tumor area in the colon” value is “smaller”. Further, in test [1] (setting [4]), the colon length entry is “shortening was suppressed”, the “tumor area in the colon” value is reported as “smaller”, the “ratio of tumor area in the colon” value was “smaller” and the “number” value was “smaller”. The survival entry in test [1] (10 mg/kg body weight/day orally, 4 out of 8 mice died in the placebo group, FIG. 3) is recorded as “all 8 mice survived”.
